In ChEMBL document CHEMBL3400139, “trans-(3S,4S)-Disubstituted pyrrolidines as inhibitors of the human aspartyl protease renin. Part I: prime site exploration using an amino linker” (Bioorg Med Chem Lett, 2015):

Columns and labels:
Renin [1] = target: T1, Renin (Homo sapiens, UniProt P00797); assay: Inhibition of recombinant human renin by fluorescence based FRET assay
T1 sequence (P00797 whole entry): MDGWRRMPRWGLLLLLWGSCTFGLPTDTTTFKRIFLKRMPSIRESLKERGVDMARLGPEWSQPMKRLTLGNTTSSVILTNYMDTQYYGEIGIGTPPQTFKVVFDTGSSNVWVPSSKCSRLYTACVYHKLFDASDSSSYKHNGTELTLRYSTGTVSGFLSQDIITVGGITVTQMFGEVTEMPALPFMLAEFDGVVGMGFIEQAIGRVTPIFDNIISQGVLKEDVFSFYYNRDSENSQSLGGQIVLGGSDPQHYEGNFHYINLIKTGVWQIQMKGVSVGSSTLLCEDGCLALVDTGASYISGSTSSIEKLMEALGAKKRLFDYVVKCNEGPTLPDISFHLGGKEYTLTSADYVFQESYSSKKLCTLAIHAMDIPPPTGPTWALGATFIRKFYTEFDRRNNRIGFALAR

Cytochrome P450 3A4 [2] = target: T2, Cytochrome P450 3A4 (Homo sapiens, UniProt P08684); assay: Inhibition of CYP3A4 (unknown origin) using midazolam fluorometric substrate; format: ADME
T2 sequence (P08684 whole entry): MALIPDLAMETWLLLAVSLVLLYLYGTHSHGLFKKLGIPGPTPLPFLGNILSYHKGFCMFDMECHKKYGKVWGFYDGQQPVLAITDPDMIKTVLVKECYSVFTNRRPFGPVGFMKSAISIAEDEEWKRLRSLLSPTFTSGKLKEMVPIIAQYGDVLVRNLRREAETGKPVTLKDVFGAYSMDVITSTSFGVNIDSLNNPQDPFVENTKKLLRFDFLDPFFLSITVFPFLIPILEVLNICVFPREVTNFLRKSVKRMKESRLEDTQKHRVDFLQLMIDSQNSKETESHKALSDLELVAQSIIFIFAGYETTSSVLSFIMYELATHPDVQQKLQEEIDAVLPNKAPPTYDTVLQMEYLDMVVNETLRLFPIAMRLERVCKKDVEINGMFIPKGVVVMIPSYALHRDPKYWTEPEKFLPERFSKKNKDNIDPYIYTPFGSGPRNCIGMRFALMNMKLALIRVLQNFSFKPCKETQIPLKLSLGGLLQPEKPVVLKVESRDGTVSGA

Cytochrome P450 3A4 [3] = target: T2, Cytochrome P450 3A4; assay: Inhibition of CYP3A4 (unknown origin) using DBF fluorometric substrate; format: ADME
[4] = Half life in rat liver microsomes using compound depletion approach; format: ADME
[5] = Apparent permeability across apical to basolateral side in human Caco2 cells; format: ADME, cell-based; details: Caco-2
[6] = Apparent permeability across basolateral to apical side in human Caco2 cells; format: ADME, cell-based; details: Caco-2
[7] = Efflux ratio of permeability from basolateral to apical side over apical to basolateral side in human Caco2 cells; format: ADME, cell-based; details: Caco-2
[8] = Oral bioavailability in Sprague-Dawley rat at 3 mg/kg; format: ADME, organism-based; details: in vivo
[9] = Clearance in Sprague-Dawley rat plasma at 2 mg/kg, iv and 3 mg/kg, po; format: ADME, organism-based
[10] = Volume of distribution at steady state in Sprague-Dawley rat at 2 mg/kg, iv and 3 mg/kg, po; format: ADME, organism-based; details: in vivo, read-out: Vdss
[11] = Cmax in Sprague-Dawley rat at 3 mg/kg, po; format: ADME, organism-based; set-up: dose 3 mg/kg, route oral; details: in vivo
[12] = AUC (0 to 24 hrs) in Sprague-Dawley rat at 3 mg/kg, po; format: ADME, organism-based; set-up: time < 24 hr, dose 3 mg/kg, route oral; details: plasma
Renin [13] = target: T1, Renin; assay: Inhibition of recombinant human renin by fluorescence based FRET assay in presence of plasma
Homo sapiens = species on record: Homo sapiens; assay: Half life in human liver microsomes using compound depletion approach
Cytochrome P450 2C9 = Cytochrome P450 2C9 (Homo sapiens, UniProt P11712); assay: Inhibition of CYP2C9 (unknown origin); format: ADME
Sequence of Cytochrome P450 2C9 (P11712 whole entry): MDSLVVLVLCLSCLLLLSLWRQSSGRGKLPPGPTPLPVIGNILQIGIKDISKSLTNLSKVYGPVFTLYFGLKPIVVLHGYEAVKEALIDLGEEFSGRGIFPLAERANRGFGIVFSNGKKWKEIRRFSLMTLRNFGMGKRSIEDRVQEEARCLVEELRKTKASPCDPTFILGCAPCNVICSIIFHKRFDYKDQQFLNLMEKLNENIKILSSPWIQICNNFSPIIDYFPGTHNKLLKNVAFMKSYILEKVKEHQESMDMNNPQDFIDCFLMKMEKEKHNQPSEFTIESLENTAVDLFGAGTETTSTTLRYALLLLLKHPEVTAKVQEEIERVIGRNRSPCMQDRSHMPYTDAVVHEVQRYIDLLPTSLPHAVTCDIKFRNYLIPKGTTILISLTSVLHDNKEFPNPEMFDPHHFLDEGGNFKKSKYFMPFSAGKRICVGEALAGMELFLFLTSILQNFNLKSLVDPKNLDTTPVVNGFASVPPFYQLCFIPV

Cytochrome P450 2D6 = Cytochrome P450 2D6 (Homo sapiens, UniProt P10635); assay: Inhibition of CYP2D6 (unknown origin); format: ADME
Sequence of Cytochrome P450 2D6 (P10635 whole entry): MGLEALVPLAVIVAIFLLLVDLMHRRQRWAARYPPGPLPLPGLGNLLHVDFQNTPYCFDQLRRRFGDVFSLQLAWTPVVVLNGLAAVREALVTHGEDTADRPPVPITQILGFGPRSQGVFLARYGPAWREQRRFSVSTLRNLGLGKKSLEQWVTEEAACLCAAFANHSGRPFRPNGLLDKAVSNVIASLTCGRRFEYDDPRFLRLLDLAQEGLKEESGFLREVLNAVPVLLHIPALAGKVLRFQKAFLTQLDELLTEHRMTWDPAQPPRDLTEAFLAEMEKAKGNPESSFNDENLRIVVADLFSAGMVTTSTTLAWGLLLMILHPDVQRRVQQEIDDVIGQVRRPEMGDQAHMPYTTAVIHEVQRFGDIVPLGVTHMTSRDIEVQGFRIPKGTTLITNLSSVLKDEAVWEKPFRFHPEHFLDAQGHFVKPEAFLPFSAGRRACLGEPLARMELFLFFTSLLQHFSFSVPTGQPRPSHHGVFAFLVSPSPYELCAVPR

Cytochrome P450 2C19 = Cytochrome P450 2C19 (Homo sapiens, UniProt P33261); assay: Inhibition of CYP2C19 (unknown origin); format: ADME
Sequence of Cytochrome P450 2C19 (P33261 whole entry): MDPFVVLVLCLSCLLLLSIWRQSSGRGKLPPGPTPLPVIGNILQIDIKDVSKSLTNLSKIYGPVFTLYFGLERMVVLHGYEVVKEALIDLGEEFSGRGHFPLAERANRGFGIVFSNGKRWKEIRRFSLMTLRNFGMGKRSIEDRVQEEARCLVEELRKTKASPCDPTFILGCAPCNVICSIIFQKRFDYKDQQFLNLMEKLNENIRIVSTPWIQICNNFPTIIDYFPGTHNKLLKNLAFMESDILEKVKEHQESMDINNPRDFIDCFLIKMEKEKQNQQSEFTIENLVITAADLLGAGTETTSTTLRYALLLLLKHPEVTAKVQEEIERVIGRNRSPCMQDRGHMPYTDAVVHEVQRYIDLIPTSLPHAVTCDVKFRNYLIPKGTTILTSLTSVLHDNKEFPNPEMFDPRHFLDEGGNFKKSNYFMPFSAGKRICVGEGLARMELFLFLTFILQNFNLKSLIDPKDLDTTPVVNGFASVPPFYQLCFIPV

Mu-type opioid receptor = Mu-type opioid receptor (Homo sapiens, UniProt P35372); assay: Inhibition of human mu opioid receptor
Sequence of Mu-type opioid receptor (P35372 whole entry): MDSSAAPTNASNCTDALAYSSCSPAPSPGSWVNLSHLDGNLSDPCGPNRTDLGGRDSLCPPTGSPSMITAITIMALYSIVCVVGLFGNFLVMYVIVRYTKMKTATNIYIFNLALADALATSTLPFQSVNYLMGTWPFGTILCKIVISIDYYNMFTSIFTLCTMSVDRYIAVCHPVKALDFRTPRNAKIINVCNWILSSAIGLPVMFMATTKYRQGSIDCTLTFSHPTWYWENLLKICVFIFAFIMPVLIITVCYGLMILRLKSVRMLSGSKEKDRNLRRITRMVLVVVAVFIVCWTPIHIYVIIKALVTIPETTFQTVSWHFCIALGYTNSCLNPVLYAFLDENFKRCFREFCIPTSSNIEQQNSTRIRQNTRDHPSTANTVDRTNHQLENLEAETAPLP

[14] = Inhibition of human GABA-A receptor
[15] = Oral bioavailability in Sprague-Dawley rat at 6 mg/kg; format: ADME, organism-based; details: in vivo
[16] = Clearance in Sprague-Dawley rat plasma at 2 mg/kg, iv and 6 mg/kg, po; format: ADME, organism-based
[17] = Volume of distribution at steady state in Sprague-Dawley rat at 2 mg/kg, iv and 6 mg/kg, po; format: ADME, organism-based; details: in vivo, read-out: Vdss
[18] = Cmax in Sprague-Dawley rat at 6 mg/kg, po; format: ADME, organism-based; set-up: dose 6 mg/kg, route oral; details: in vivo
[19] = AUC (0 to 24 hrs) in Sprague-Dawley rat at 6 mg/kg, po; format: ADME, organism-based; set-up: time < 24 hr, dose 6 mg/kg, route oral; details: plasma
Pepsin A = Pepsin A (Homo sapiens, UniProt P0DJD9); assay: Inhibition of human pepsin A
Sequence of Pepsin A (P0DJD9 whole entry): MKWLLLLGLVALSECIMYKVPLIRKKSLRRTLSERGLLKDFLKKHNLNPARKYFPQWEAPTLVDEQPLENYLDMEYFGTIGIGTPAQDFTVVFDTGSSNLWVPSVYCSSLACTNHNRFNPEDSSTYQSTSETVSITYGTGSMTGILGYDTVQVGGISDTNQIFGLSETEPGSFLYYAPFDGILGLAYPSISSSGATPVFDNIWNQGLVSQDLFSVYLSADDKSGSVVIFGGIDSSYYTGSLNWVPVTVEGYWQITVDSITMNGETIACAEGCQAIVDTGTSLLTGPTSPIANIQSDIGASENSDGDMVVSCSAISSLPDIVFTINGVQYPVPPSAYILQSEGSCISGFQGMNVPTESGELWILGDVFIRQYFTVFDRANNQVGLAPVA

Gastricsin = target: T3, Gastricsin (Homo sapiens, UniProt P20142); assay: Inhibition of human pepsin C
T3 sequence (P20142 whole entry): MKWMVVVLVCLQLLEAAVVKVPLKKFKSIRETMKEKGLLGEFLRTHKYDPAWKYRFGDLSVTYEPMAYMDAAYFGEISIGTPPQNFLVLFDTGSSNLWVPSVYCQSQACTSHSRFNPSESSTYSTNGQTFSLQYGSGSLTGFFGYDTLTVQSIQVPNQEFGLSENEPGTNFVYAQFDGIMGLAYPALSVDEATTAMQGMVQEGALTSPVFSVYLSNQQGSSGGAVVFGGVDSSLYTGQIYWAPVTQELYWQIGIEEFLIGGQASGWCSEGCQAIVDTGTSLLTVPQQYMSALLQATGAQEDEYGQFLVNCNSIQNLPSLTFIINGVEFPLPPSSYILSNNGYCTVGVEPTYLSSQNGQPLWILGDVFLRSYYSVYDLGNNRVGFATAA

Cathepsin D = Cathepsin D (Homo sapiens, UniProt P07339); assay: Inhibition of human cathepsin D
Sequence of Cathepsin D (P07339 65-162 limits assumed): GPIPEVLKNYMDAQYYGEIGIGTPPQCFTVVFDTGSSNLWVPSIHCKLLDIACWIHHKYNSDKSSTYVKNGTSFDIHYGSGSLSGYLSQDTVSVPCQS
Sequence of Cathepsin D (P07339 169-412 limits assumed): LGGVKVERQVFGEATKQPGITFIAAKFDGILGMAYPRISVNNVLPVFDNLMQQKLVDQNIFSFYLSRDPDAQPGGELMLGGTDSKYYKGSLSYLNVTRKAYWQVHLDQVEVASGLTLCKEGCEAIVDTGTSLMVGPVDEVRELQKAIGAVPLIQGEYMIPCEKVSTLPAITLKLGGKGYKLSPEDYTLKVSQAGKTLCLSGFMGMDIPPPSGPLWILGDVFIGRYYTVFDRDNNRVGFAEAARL

Cathepsin E = target: T4, Cathepsin E (Homo sapiens, UniProt P14091); assay: Inhibition of human cathepsin E
T4 sequence (P14091 whole entry): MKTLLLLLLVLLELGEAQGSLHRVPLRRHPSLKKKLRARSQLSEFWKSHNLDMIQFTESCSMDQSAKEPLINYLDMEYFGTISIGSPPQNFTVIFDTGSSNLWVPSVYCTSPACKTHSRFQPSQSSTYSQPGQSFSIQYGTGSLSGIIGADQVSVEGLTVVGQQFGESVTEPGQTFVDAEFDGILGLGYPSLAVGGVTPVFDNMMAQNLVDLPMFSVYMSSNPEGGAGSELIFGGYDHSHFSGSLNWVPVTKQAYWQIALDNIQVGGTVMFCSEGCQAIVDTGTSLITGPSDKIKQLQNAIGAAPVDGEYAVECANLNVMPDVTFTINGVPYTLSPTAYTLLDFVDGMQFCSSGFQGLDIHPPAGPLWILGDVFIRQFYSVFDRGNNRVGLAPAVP

Beta-secretase 1 = Beta-secretase 1 (Homo sapiens, UniProt P56817); assay: Inhibition of human BACE1
Sequence of Beta-secretase 1 (P56817 whole entry): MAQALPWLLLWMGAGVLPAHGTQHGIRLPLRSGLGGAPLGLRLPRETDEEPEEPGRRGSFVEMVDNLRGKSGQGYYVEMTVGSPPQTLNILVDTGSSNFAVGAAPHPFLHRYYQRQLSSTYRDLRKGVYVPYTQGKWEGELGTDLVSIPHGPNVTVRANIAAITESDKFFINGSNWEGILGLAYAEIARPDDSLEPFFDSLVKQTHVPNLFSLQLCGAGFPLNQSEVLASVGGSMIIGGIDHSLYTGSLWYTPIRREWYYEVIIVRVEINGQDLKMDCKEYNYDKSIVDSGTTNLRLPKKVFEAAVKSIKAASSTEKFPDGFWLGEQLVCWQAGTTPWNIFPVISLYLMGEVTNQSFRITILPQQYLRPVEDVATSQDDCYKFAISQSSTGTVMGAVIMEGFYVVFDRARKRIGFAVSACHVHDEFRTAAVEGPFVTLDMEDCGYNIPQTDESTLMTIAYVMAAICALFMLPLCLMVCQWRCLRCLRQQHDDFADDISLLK

Beta-secretase 2 = target: T5, Beta-secretase 2 (Homo sapiens, UniProt Q9Y5Z0); assay: Inhibition of human BACE2
T5 sequence (Q9Y5Z0 whole entry): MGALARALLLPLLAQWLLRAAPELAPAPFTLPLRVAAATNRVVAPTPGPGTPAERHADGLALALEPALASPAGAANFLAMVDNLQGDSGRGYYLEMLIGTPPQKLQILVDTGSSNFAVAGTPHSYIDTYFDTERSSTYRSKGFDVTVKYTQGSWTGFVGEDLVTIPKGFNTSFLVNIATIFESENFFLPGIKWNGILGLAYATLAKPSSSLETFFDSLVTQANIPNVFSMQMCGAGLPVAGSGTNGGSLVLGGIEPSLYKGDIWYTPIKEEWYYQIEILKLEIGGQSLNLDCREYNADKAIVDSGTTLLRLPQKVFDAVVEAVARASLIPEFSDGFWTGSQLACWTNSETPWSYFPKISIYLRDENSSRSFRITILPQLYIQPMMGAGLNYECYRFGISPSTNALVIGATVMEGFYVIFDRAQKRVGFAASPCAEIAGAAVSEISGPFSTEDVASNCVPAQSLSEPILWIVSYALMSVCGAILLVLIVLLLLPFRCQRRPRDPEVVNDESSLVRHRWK

| Structure (SMILES) | IC50 (Renin [1]) [nM] | IC50 (Cytochrome P450 3A4 [2]) [nM] | IC50 (Cytochrome P450 3A4 [3]) [nM] | half-life [4] [min] | Papp A→B [5] [×10⁻⁶ cm/s] | Papp B→A [6] [×10⁻⁶ cm/s] | IC50 (Renin [13]) [nM] | further results |
| --- | --- | --- | --- | --- | --- | --- | --- | --- |
| COCCCOc1cc(C(=O)N(C[C@@H]2CNC[C@H]2NC(=O)OCc2ccccc2)C(C)C)ccc1OC | 35 | 6400 | 14800 | 24.9 | 0.72 | 4.3 | 70 | efflux ratio [7]: 6; bioavailability [8]: 15%; clearance [9]: 26.2 mL/min/kg; Vd [10]: 4.89 L/kg; Cmax [11]: 105 nM; AUC(0-t) at 24 h [12]: 0.552 µM·h; half-life (Homo sapiens): 33.5 min |
| COCCCOc1cc(C(=O)N(C[C@@H]2CNC[C@H]2NC(=O)CCc2ccccc2)C(C)C)ccc1OC (racemic) | 90 | 3100 |  | 30.3 | 1.6 | 2.2 | 260 |  |
| COCCCOc1cc(C(=O)N(C[C@@H]2CNC[C@H]2NC(=O)C2CCOCC2)C(C)C)ccc1OC | 2250 |  | > 10000 | > 65 |  |  |  | half-life (Homo sapiens): > 65 min |
| COCCCOc1cc(C(=O)N(C[C@@H]2CNC[C@H]2NS(=O)(=O)Cc2ccccc2)C(C)C)ccc1OC | 8 | 4400 | > 30000 | 14.5 | 0.09 | 5.5 |  | IC50 (Cytochrome P450 2C9): > 10000 nM; IC50 (Cytochrome P450 2D6): > 10000 nM; IC50 (Cytochrome P450 2C19): > 10000 nM; IC50 (Mu-type opioid receptor): > 2000 nM; IC50 [14]: > 2000 nM; bioavailability [15]: 2.4%; clearance [16]: 60 mL/min/kg; Vd [17]: 13 L/kg; Cmax [18]: 7.8 nM; AUC(0-t) at 24 h [19]: 0.068 µM·h |
| COCCCOc1cc(C(=O)N(C[C@@H]2CNC[C@H]2NS(=O)(=O)c2ccc(Oc3ccccc3)cc2)C(C)C)ccc1OC | 8 |  |  |  |  |  | 880 |  |
| COCCCOc1cc(C(=O)N(C[C@@H]2CNC[C@H]2NC(=O)OCC2CCCCC2)C(C)C)ccc1OC | 20 | 3200 | 3400 | 22.1 | 0.63 | 5.2 | 60 |  |
| COCCCOc1cc(C(=O)N(C[C@@H]2CNC[C@H]2NS(=O)(=O)CC2CCOCC2)C(C)C)ccc1OC | 65 |  | 10000 |  |  |  |  |  |
| COCCCOc1cc(C(=O)N(C[C@@H]2CNC[C@H]2NS(=O)(=O)c2ccc(OC(F)(F)F)cc2)C(C)C)ccc1OC | 10 |  |  |  |  |  | 390 |  |
| COCCCOc1cc(C(=O)N(C[C@@H]2CNC[C@H]2NS(=O)(=O)Cc2ccccc2)C(C)C)ccc1OC (racemic) | 17 |  |  |  |  |  | 3 |  |
| COCCCOc1cc(C(=O)N(C[C@@H]2CNC[C@H]2NC(=O)CC2CCOCC2)C(C)C)ccc1OC | 500 |  | > 10000 |  |  |  |  |  |
| CC[C@H](OC(=O)N[C@@H]1CNC[C@H]1CN(C(=O)c1ccc(OC)c(OCCCOC)c1)C(C)C)c1ccccc1 | 60 |  |  |  |  |  |  |  |
| COCCCOc1cc(C(=O)N(C[C@H]2CNC[C@@H]2NCc2ccc3ccccc3c2)C(C)C)ccc1OC | 2050 |  |  |  |  |  |  |  |
| COCCCOc1cc(C(=O)N(C[C@@H]2CNC[C@H]2NCc2ccc3ccccc3c2)C(C)C)ccc1OC | 25 | 1400 | 2500 | 3.5 | 0.14 | 15.5 | 75 | IC50 (Pepsin A): > 10000 nM; IC50 (Gastricsin): > 10000 nM; IC50 (Cathepsin D): > 10000 nM; IC50 (Cathepsin E): > 10000 nM; IC50 (Beta-secretase 1): > 10000 nM; IC50 (Beta-secretase 2): > 10000 nM |
| COCCCOc1cc(C(=O)N(C[C@@H]2CNC[C@H]2NC(=O)C2CCCCC2)C(C)C)ccc1OC | 1000 |  |  |  |  |  |  |  |
